Laboratory results reported in PMC11148080, “Ru(II)-based complexes containing 2-thiouracil derivatives suppress liver cancer stem cells by targeting NF-κB and Akt/mTOR signaling” (Cell Death Discovery, 2024).
Values joined by “and” are separate entries in the source; they are usually repeats but may differ in a detail not shown here. Equal values may be shown once.

Key:
[1] = test system: BJ; test: Alamar Blue cytotoxicity, noncancerous cells; type: cell-based, human; conditions: 72 h
Procedure: (§1) The Alamar Blue assay was used to measure cell viability, as previously described. Adherent cells were seeded in 96-well plates at a density of 7 × 10^3 cells per well, and suspended cells were seeded at 3 × 10^4 cells per well. Drugs were added to each well after overnight incubation for adherent cells or immediately after seeding for suspension cells, and incubation continued for an additional 72 h. The positive control included doxorubicin (Laboratorio IMA S.A.I.C., Buenos Aires, Argentina). Four hours (for cell lines) or 24 h (for primary cultures) before the end of incubation, 20 μL of resazurin (30 μM) (Sigma‒Aldrich Co. St. Louis, MO, USA) was added to each well. The absorbance at 570 and 600 nm was measured using a SpectraMax 190 microplate reader (Molecular Devices, Sunnyvale, CA, USA).

[2] = test system: MRC-5; test: Alamar Blue cytotoxicity, noncancerous cells; type: cell-based, human; conditions: MRC-5, 72 h
Procedure: as §1

[3] = test system: PBMC; test: Alamar Blue cytotoxicity, noncancerous cells; type: cell-based, human; conditions: 72 h
Procedure: as §1, with “USA). […]” for “USA).”
PBMC heath peripheral blood mononuclear human primary cell […]
Then, the PBMCs were resuspended in RPMI 1640 or DMEM-F12 supplemented with 20% FBS and 1% antibiotics. The cells were plated at 5 × 10^5 cells/well. Concanavalin A (10 μg/mL, Sigma‒Aldrich) was used as a mitogen to trigger cell division in T lymphocytes and was added at the beginning of the culture. The Research Ethics Committee of the Oswaldo Cruz Foundation

[4] = test system: HL-60; test: Alamar Blue cytotoxicity; type: cell-based, human; conditions: for IC50: HL-60, 72 h
Procedure: as §1, with “The positive control included doxorubicin (Laboratorio IMA S.A.I.C., Buenos Aires, Argentina).” left out

[5] = test system: Jurkat; test: Alamar Blue cytotoxicity; type: cell-based, human; conditions: for IC50: Jurkat, 72 h
Procedure: as §1

[6] = test system: HSC-3; test: Alamar Blue cytotoxicity; type: cell-based, human; conditions: for IC50: HSC-3, 72 h
Procedure: as §1

[7] = test system: A549; test: Alamar Blue cytotoxicity; type: cell-based, human
Procedure: as §1

[8] = test system: OVCAR-3; test: Alamar Blue cytotoxicity; type: cell-based, human; conditions: for IC50: OVCAR-3, 72 h
Procedure: as §1

[9] = test system: THP-1; test: Alamar Blue cytotoxicity; type: cell-based, human; conditions: for IC50: THP-1, 72 h
Procedure: as §1

[10] = test system: SCC-25; test: Alamar Blue cytotoxicity; type: cell-based, human; conditions: for IC50: SCC-25, 72 h
Procedure: as §1

[11] = test system: SCC4; test: Alamar Blue cytotoxicity; type: cell-based, human; conditions: for IC50: SCC4, 72 h
Procedure: as §1

[12] = test system: K-562; test: Alamar Blue cytotoxicity; type: cell-based, human; conditions: for IC50: K-562, 72 h
Procedure: as §1

[13] = test system: MDA-MB-231; test: Alamar Blue cytotoxicity; type: cell-based, human; conditions: for IC50: MDA-MB-231, 72 h
Procedure: as §1

[14] = test system: A-375; test: Alamar Blue cytotoxicity; type: cell-based, human; conditions: for IC50: A-375, 72 h
Procedure: as §1

[15] = test system: CAL 27; test: Alamar Blue cytotoxicity; type: cell-based, human; conditions: for IC50: CAL 27, 72 h
Procedure: as §1

[16] = test system: KG-1a; test: Alamar Blue cytotoxicity; type: cell-based, human; conditions: for IC50: KG-1a, 72 h
Procedure: as §1

[17] = test system: PANC-1; test: Alamar Blue cytotoxicity; type: cell-based, human; conditions: for IC50: PANC-1, 72 h
Procedure: as §1

[18] = test system: HepG2 cells; test: Annexin V-FITC/PI apoptosis detection; type: cell-based, human; conditions: for apoptosis (annexin V-FITC+ cells): HepG2, 72 h, control 4.8%
Procedure: For apoptosis detection, cell viability was quantified using Annexin V-FITC/PI (FITC Annexin V Apoptosis Detection Kit I, BD Biosciences, San Jose, CA, USA) according to the manufacturer’s instructions. The cells were also stained with rhodamine 123 (5 μg/mL, Sigma Aldrich Co.) for 15 min at 37 °C in the dark to assess the mitochondrial transmembrane potential. After the cells were washed, they were incubated in saline for 30 min in the dark at 37 °C and analyzed by flow cytometry. For all flow cytometry analyses, cellular fluorescence was measured using a BD LSRFortessa cytometer, BD FACSDiva software (BD Biosciences) and FlowJo software 10 (FlowJo LLC; Ashland, OR, USA). A minimum of 10,000 events were obtained per sample for intracellular staining, and a minimum of 30,000 events per sample were acquired for cell surface protein staining. Doublets were removed using FSC-A vs FCS-H and SCC-A vs SCC-H. Cellular debris was excluded from the analysis.

[19] = test system: 4T1; test: Alamar Blue cytotoxicity; type: cell-based, mouse; conditions: for IC50: 4T1, 72 h
Procedure: as §1

[20] = test system: B16-F10; test: Alamar Blue cytotoxicity; type: cell-based, mouse; conditions: for IC50: B16-F10, 72 h
Procedure: as §1

For `COc1cccc2c1C(=O)c1c(O)c3c(c(O)c1C2=O)C[C@@](O)(C(=O)CO)C[C@@H]3O[C@H]1C[C@H](N)[C@H](O)[C@H](C)O1` [Doxorubicin], the IC50 ([1]; Homo sapiens) was 1850 nM, the IC50 ([2]; Homo sapiens, MRC5) was 1700 nM and the IC50 ([3]; Homo sapiens) was 1330 nM. For the same molecule, the IC50 ([4]; Homo sapiens) was 350 nM, the Selectivity index ([4]; IC50 BJ/IC50 HL-60) was 5.29 and the Selectivity index ([4]; IC50 MRC-5/IC50 HL-60) was 4.86. The IC50 ([5]; Homo sapiens) was 60 nM, the Selectivity index ([5]; IC50 BJ/IC50 Jurkat) was 30.83 and the Selectivity index ([5]; IC50 MRC-5/IC50 Jurkat) was 28.33. For the same molecule, the Selectivity index ([5]; IC50 PBMC/IC50 Jurkat) was 22.17, the IC50 ([6]; Homo sapiens) was 690 nM and the Selectivity index ([6]; IC50 BJ/IC50 HSC-3) was 2.68. The Selectivity index ([6]; IC50 MRC-5/IC50 HSC-3) was 2.46, the Selectivity index ([6]; IC50 PBMC/IC50 HSC-3) was 1.93 and the Selectivity index ([7]; IC50 BJ/IC50 A549) was 0.79. For the same molecule, the Selectivity index ([7]; IC50 MRC-5/IC50 A549) was 0.72, the Selectivity index ([7]; IC50 PBMC/IC50 A549) was 0.57 and the IC50 ([8]; Homo sapiens) was 1060 nM. The Selectivity index ([8]; IC50 BJ/IC50 OVCAR-3) was 1.75, the Selectivity index ([8]; IC50 MRC-5/IC50 OVCAR-3) was 1.60 and the Selectivity index ([8]; IC50 PBMC/IC50 OVCAR-3) was 1.25. For the same molecule, the IC50 ([9]; Homo sapiens) was 140 nM, the Selectivity index ([9]; IC50 BJ/IC50 THP-1) was 13.21 and the Selectivity index ([9]; IC50 MRC-5/IC50 THP-1) was 12.14. For the same molecule, the Selectivity index ([9]; IC50 PBMC/IC50 THP-1) was 9.50, the IC50 ([10]; Homo sapiens) was 1440 nM and the Selectivity index ([10]; IC50 BJ/IC50 SCC-25) was 1.28. For the same molecule, the Selectivity index ([10]; IC50 MRC-5/IC50 SCC-25) was 1.18, the Selectivity index ([10]; IC50 PBMC/IC50 SCC-25) was 0.92 and the IC50 ([11]; Homo sapiens, SCC-4) was 1800 nM. The Selectivity index ([11]; IC50 BJ/IC50 SCC4) was 1.03, the Selectivity index ([11]; IC50 MRC-5/IC50 SCC4) was 0.94 and the Selectivity index ([11]; IC50 PBMC/IC50 SCC4) was 0.74. It also gave an IC50 ([12]; Homo sapiens, K562) of 1650 nM, a Selectivity index ([12]; IC50 BJ/IC50 K-562) of 1.12 and a Selectivity index ([12]; IC50 MRC-5/IC50 K-562) of 1.03. It also gave a Selectivity index ([12]; IC50 PBMC/IC50 K-562) of 0.81, an IC50 ([13]; Homo sapiens) of 430 nM and a Selectivity index ([13]; IC50 BJ/IC50 MDA-MB-231) of 4.30. For the same molecule, the Selectivity index ([13]; IC50 MRC-5/IC50 MDA-MB-231) was 3.95, the Selectivity index ([13]; IC50 PBMC/IC50 MDA-MB-231) was 3.09 and the IC50 ([14]; Homo sapiens) was 160 nM. For the same molecule, the Selectivity index ([14]; IC50 BJ/IC50 A-375) was 11.56, the Selectivity index ([14]; IC50 MRC-5/IC50 A-375) was 10.63 and the Selectivity index ([14]; IC50 PBMC/IC50 A-375) was 8.31. For the same molecule, the IC50 ([15]; Homo sapiens) was 110 nM, the Selectivity index ([15]; IC50 BJ/IC50 CAL 27) was 16.82 and the Selectivity index ([15]; IC50 MRC-5/IC50 CAL 27) was 15.45. It also gave a Selectivity index ([15]; IC50 PBMC/IC50 CAL 27) of 12.09, an IC50 ([16]; Homo sapiens) of 70 nM and a Selectivity index ([16]; IC50 BJ/IC50 KG-1a) of 26.43. The Selectivity index ([16]; IC50 MRC-5/IC50 KG-1a) was 24.29, the Selectivity index ([16]; IC50 PBMC/IC50 KG-1a) was 19.00 and the IC50 ([17]; Homo sapiens) was 1110 nM. The Selectivity index ([17]; IC50 BJ/IC50 PANC-1) was 1.67, the Selectivity index ([17]; IC50 MRC-5/IC50 PANC-1) was 1.53 and the Selectivity index ([17]; IC50 PBMC/IC50 PANC-1) was 1.20. For the same molecule, the apoptosis ([18]; HepG2, DOX 1 μM, positive control) was “also led to apoptosis”, the Selectivity index ([19]; IC50 BJ/IC50 4T1) was 1.21 and the Selectivity index ([19]; IC50 MRC-5/IC50 4T1) was 1.11. It also gave a Selectivity index ([19]; IC50 PBMC/IC50 4T1) of 0.87, an IC50 ([19]; Mus musculus) of 1530 nM and a Selectivity index ([20]; IC50 BJ/IC50 B16-F10) of 4.30. The Selectivity index ([20]; IC50 MRC-5/IC50 B16-F10) was 3.95, the Selectivity index ([20]; IC50 PBMC/IC50 B16-F10) was 3.09 and the IC50 ([20]; Mus musculus) was 430 nM.

Work on `F[P-](F)(F)(F)(F)F.O=c1cc[nH]c([S][Ru+])n1.c1ccc(-c2ccccn2)nc1.c1ccc(P(c2ccccc2)c2ccccc2)cc1.c1ccc(P(c2ccccc2)c2ccccc2)cc1` [Complex 1, trans-[Ru(2TU)(PPh3)2(bipy)]PF6] yielded an IC50 [1] of 7000 nM, an IC50 [2] of 17700 nM and an IC50 [3] of 14200 nM. For the same molecule, the IC50 [4] was 5710 nM, the IC50 [5] was 5070 nM and the IC50 [6] was 8360 nM. The IC50 ([7]; A549, 72 h) was 17500 nM, the IC50 [8] was 2400 nM and 2430 nM and the IC50 [9] was 4750 nM. It also gave an IC50 [10] of 7610 nM, an IC50 [11] of 4770 nM and an IC50 [12] of 6770 nM. For the same molecule, the IC50 [13] was 2620 nM, the IC50 [14] was 3010 nM and the IC50 [15] was 2660 nM. The IC50 [16] was 4770 nM, the IC50 [17] was 9450 nM and the “apoptosis (annexin V-FITC+ cells)” value ([18]; 2 µM) was 9.0%. The “apoptosis (annexin V-FITC+ cells)” value ([18]; 4 µM) was 48.9%, the “apoptosis (annexin V-FITC+ cells)” value ([18]; 8 µM) was 76.1% and the “percentage of necrotic cells” value ([18]; HepG2, 24, 48, 72 h) was “no significant increase”. It also gave an IC50 [19] of 11700 nM and an IC50 [20] of 3040 nM.
